This passage reports IC50, EC50 and AC50 results from ChEMBL document CHEMBL1201862, “PubChem BioAssay data set” (2004).

The source made the active and inactive calls.

One test deals with Procathepsin L (Homo sapiens, UniProt P07711). As to the kind of experiment: CTSL1 protease inhibition – biochemical, QFRET, 1536-well, counter-screen for M1/M17 aminopeptidase inhibitor project, dose response (AID 2214).
The target of another test is T1, Leucine aminopeptidase (Plasmodium falciparum 3D7, UniProt Q8IL11).
T1 sequence (Q8IL11 whole entry): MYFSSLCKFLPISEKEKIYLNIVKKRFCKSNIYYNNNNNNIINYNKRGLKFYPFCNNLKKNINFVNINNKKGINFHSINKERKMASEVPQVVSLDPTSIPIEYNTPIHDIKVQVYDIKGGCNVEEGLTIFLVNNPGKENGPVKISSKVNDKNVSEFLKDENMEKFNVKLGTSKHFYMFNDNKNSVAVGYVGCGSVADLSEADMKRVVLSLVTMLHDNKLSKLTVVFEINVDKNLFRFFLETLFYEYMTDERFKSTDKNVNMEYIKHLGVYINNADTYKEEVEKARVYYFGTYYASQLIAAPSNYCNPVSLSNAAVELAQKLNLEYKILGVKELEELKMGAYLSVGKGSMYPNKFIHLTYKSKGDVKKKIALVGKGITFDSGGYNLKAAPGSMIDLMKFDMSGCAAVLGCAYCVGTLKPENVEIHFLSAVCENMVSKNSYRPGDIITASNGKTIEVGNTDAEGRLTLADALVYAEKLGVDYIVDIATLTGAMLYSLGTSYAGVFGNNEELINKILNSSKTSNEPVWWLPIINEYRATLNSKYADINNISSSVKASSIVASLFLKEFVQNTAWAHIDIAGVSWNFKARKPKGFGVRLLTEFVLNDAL
As to the kind of experiment: P. falciparum M17LAP inhibitors, primary screen, biochemical, fluorogenic H-Leu-NHMec substrate, 1536-well (AID 1619). In kind it is functional.

In the next test the target is Aspartyl aminopeptidase (Plasmodium falciparum 3D7, UniProt Q8I2J3). As to the kind of experiment: Counterscreen for inhibitors of M1 and M17 aminopeptidases: QFRET-based biochemical high throughput dose response assay for inhibitors of the Plasmodium falciparum M18 Aspartyl Aminopeptidase (PFM18AAP). [Related PubChem assays: 1619 (Screening assay (M17LAP inhibitors).), 1445 (Screening assay (M1AAP inhibitors).)]. (A counterscreen serves to expose hits that act by an unwanted route or on another target.)
Aspartyl aminopeptidase, sequence (Q8I2J3 whole entry): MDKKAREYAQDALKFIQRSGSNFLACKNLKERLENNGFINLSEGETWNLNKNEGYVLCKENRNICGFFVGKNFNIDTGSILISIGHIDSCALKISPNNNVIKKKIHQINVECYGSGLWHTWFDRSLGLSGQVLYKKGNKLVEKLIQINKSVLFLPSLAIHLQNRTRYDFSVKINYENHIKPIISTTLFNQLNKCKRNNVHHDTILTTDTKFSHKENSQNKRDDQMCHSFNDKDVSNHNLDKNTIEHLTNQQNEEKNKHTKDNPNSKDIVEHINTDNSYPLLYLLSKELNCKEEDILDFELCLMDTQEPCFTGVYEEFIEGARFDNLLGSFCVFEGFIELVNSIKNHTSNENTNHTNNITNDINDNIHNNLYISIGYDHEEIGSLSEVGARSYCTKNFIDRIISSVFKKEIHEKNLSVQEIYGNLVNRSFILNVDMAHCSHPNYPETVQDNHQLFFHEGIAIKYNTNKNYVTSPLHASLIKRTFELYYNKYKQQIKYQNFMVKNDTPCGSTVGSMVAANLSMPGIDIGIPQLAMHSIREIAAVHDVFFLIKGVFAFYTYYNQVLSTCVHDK

For another test, the target named is Galanin receptor type 2 (Homo sapiens, UniProt O43603). As to the kind of experiment: Dose Response cell-based high-throughput screening assay to identify antagonists of galanin receptor 2 (GALR2). [Related pubchem assays: 828, 866 ]. In kind it is functional.
Galanin receptor type 2, sequence (O43603 whole entry): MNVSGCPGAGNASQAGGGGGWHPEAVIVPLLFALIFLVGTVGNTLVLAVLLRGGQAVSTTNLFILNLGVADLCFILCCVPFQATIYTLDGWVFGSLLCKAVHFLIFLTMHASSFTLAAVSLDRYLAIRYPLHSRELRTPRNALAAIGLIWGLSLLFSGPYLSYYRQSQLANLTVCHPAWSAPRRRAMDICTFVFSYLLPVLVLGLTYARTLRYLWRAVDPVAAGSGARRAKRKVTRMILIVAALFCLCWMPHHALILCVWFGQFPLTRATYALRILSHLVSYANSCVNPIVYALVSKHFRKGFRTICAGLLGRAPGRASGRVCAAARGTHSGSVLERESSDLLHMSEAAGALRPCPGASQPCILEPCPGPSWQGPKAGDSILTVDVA
The target of test [1] is Aryl hydrocarbon receptor (Homo sapiens, UniProt P35869). The experiment in a line: Luminescence-based cell-based high throughput dose response assay for activators of the Aryl Hydrocarbon Receptor (AHR). [Related pubchem assays: 2796 (Primary screen (AHR activators in singlicate)), 2845 (Confirmation screen (AHR activators in triplicate)), 434939 (Counterscreen (PXR activators in triplicate)), 2804 (Summary (AHR activators))]. In kind it is ADME.
Aryl hydrocarbon receptor, sequence (P35869 whole entry): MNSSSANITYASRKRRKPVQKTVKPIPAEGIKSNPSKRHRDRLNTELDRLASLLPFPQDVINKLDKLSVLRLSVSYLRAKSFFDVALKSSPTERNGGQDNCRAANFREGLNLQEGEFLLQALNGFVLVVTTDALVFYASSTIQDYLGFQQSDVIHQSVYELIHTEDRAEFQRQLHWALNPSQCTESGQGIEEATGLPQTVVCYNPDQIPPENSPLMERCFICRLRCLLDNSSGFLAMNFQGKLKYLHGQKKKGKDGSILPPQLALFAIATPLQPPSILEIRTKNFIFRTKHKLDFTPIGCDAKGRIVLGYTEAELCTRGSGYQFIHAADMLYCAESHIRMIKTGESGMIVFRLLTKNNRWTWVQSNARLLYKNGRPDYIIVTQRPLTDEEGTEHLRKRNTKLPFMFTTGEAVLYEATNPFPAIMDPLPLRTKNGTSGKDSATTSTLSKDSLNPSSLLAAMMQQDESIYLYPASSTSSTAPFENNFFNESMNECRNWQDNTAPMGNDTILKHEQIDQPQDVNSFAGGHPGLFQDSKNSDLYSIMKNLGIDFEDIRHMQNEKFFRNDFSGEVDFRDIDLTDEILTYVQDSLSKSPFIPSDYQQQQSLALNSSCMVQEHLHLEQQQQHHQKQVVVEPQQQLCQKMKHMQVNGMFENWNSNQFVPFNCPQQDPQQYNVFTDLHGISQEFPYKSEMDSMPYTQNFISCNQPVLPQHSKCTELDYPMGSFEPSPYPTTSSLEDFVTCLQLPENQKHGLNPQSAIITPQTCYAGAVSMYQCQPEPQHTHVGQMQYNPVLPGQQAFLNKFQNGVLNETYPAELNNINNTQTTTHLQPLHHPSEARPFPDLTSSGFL

Test [2] has as its target T2, Long-chain-fatty-acid--AMP ligase FadD28 (Mycobacterium tuberculosis, UniProt P9WQ59).
T2 sequence (P9WQ59 whole entry): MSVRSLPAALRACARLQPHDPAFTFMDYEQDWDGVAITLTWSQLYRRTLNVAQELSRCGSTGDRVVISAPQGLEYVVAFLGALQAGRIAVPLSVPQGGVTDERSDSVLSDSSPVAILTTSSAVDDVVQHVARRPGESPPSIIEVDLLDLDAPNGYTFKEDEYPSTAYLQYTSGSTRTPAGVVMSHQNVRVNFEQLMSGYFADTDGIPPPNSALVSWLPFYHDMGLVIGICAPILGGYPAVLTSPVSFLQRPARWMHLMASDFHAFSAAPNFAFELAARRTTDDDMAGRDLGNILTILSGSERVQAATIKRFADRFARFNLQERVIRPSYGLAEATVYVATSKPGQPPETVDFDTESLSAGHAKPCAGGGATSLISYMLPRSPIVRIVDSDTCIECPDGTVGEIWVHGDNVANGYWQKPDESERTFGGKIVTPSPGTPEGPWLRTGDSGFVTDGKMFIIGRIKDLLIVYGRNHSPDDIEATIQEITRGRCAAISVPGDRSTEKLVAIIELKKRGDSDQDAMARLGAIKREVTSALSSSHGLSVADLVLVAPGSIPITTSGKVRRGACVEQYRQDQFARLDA
As to the kind of experiment: Fluorescence polarization aasay to screen for inhibitors that compete for the binding of FadD28 to a bisubstrate Measured in Biochemical System Using Plate Reader - 2147-01_Inhibitor_Dose_CherryPick_Activity. In kind it is functional, Mycobacterium tuberculosis H37Rv.

In test [3] the target is Voltage-gated inwardly rectifying potassium channel KCNH2 (Homo sapiens, UniProt Q12809). The experiment in a line: concentration-dependent hERG rescue from blockers – cell-based, thallium flux, dose response (AID 2121). The class given is ADME.
Voltage-gated inwardly rectifying potassium channel KCNH2, sequence (Q12809 whole entry): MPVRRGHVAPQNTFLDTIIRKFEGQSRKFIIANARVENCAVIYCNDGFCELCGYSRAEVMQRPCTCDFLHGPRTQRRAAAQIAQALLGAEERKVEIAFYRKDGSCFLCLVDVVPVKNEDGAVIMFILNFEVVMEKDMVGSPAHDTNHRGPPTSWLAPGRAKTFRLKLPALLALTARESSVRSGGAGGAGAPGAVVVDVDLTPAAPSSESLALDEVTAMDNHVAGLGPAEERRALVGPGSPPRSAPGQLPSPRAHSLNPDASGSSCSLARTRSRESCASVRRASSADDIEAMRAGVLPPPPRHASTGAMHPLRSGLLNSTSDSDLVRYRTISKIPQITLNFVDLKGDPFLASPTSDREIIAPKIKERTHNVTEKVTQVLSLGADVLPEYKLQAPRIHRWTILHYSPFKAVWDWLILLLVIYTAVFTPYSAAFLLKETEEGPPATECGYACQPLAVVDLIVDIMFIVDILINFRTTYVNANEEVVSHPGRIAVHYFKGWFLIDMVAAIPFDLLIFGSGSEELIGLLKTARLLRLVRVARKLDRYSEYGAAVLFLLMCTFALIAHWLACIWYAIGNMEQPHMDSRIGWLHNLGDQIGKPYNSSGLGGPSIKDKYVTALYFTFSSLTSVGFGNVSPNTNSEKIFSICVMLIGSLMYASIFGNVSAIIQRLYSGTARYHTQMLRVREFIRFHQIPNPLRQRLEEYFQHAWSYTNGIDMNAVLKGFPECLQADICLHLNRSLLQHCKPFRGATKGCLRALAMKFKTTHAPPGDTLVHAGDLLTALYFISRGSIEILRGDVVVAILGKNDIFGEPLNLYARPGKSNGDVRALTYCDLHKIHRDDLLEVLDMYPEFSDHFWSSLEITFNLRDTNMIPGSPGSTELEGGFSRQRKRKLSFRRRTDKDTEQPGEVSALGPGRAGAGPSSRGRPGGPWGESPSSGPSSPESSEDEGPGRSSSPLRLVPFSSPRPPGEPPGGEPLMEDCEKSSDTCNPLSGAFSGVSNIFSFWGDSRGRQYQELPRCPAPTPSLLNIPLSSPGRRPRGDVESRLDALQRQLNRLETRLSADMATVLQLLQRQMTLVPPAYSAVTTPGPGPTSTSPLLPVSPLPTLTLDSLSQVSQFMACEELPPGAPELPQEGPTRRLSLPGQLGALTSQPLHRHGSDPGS

Procathepsin L, sequence (P07711 whole entry): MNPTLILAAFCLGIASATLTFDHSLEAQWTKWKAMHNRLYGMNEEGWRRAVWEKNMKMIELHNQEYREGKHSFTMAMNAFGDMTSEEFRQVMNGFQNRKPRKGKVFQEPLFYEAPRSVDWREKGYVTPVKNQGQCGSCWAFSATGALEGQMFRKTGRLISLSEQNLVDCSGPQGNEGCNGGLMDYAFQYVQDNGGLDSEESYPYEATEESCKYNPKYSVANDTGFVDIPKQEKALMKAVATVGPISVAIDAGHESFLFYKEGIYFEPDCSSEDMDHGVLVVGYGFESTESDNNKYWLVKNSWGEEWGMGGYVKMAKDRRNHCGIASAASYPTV

In the case of `O=C(O)Cc1ccc(NC(=O)Nc2ccc(Br)cc2)cc1`, the IC50 (commonly the concentration needed to halve the response being measured) is > 59.6 µM (not active) against Procathepsin L, < 1 µM (active) at Leucine aminopeptidase and > 73.5 µM (not active) at Aspartyl aminopeptidase.

Regarding `Cc1nnc(SCC(=O)Nc2cccc(S(=O)(=O)N(C)c3ccccc3)c2)s1`, on Galanin receptor type 2, the IC50 is > 42 µM (not active).

Take `COc1ccc(/C=N/NC(=O)c2cccc(NC(=O)c3ccc(F)cc3)c2)c(C(=O)O)c1OC`: in test [1], the EC50 (commonly the concentration giving half of the maximal effect) is 5.48 µM (active).

On to `Cc1nn(-c2cccc3ccccc23)c(O)c1/C=N/c1sc2c(c1C#N)CCC2`, for which, in test [2], the AC50 (in general, the concentration at which the activity in the assay is half-maximal) is 91.8 µM (active). Moreover, the EC50 in test [3] was 6.13 µM (active).
